From ChEMBL document CHEMBL1240304, “Host sphingolipid biosynthesis as a target for hepatitis C virus therapy” (Nat Chem Biol, 2005)
Each block holds one compound with its values, some of them ahead of it. Active and inactive are the calls of the source. The rule behind the calls is not given here.

Key:
[1] = Cytotoxicity against human Huh-7/3-1 cells assessed as reduction in cell viability; format: cell-based
Hepatitis C virus [2] = assay: Antiviral activity against Hepatitis C virus (isolate Con1) genotype 1b in human Huh-7/3-1 cells assessed as inhibition of HCV replication; format: functional, organism-based, Hepacivirus hominis; conditions: isolate Con1, Huh-7
Hepatitis C virus [3] = assay: microbe, parasite or virus in culture; conditions: isolate Con1, Huh-7
Description: Antiviral activity against Hepatitis C virus (isolate Con1) genotype 1b in human Huh-7/3-1 cells assessed as inhibition of SPT activity in presence of 3 uM sphinganine

[4] = target: T1, Serine palmitoyltransferase 1 (Homo sapiens, UniProt O15269); assay: Inhibition of human recombinant SPT1 activity in LCB1 transfected human HEK293 cells; format: cell-based
T1 sequence (O15269 whole entry): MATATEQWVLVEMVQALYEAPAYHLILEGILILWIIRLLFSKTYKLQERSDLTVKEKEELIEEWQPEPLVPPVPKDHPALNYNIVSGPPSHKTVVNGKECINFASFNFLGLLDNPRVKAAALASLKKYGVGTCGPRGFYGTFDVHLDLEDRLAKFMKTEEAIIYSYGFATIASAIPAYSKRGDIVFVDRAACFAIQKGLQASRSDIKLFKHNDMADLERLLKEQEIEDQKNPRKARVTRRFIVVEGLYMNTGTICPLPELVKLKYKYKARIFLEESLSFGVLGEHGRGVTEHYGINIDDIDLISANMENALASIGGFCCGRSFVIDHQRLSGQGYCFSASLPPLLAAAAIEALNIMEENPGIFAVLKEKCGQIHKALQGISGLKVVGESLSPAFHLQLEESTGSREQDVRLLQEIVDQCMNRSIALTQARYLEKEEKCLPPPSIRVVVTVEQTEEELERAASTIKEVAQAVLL

Hepatitis C virus [5] = assay: Antiviral activity against Hepatitis C virus (isolate Con1) genotype 1b in human Huh-7/3-1 cells assessed as reduction in NS3 protein level at 1 uM by Western blot analysis in presence of 5 uM C2-ceramide; format: functional, organism-based; conditions: Hepacivirus hominis
Homo sapiens = organism: Homo sapiens; assay: Effect on Caveolin-2 localization in human Huh-7/3-1 replicon golgi-derived detergent-resistant membrane at 1 uM after 72 hrs by immunoblotting analysis; format: functional
Hepatitis C virus [6] = assay: Antiviral activity against Hepatitis C virus (isolate Con1) genotype 1b in human Huh-7/3-1 cells assessed as reduction in NS5A protein level at 100 nM by Western blot analysis; format: functional, organism-based; conditions: Hepacivirus hominis, TDE = time-dependent effect
Hepatitis C virus [7] = assay: Antiviral activity against Hepatitis C virus (isolate Con1) genotype 1b in human Huh-7/3-1 cells assessed as reduction in NS5B protein level at 100 nM by Western blot analysis; format: functional, organism-based; conditions: Hepacivirus hominis, TDE = time-dependent effect
Hepatitis C virus [8] = assay: Antiviral activity against Hepatitis C virus (isolate Con1) genotype 1b in human Huh-7/3-1 cells assessed as inhibition of HCV replication at 0.1 to 100 nM after 72 hrs by luciferase assay; format: functional, organism-based; conditions: Hepacivirus hominis
Hepatitis C virus [9] = assay: Antiviral activity against Hepatitis C virus (isolate Con1) genotype 1b in human Huh-7/3-1 cells assessed as reduction in NS3 protein level at 100 nM by Western blot analysis; format: functional, organism-based; conditions: Hepacivirus hominis, TDE = time-dependent effect
Hepatitis C virus [10] = assay: Antiviral activity against Hepatitis C virus (isolate Con1) genotype 1b in human Huh-7/3-1 cells assessed as reduction in NS5B protein level in golgi-derived detergent-resistant membrane at 1 uM after 72 hrs by immunoblotting analysis; format: functional, organism-based; conditions: Hepacivirus hominis
[11] = Cytotoxicity against human Huh-7/3-1 cells assessed as cell viability at 0.1 to 100 uM after 72 hrs by WST-8 assay; format: cell-based
Hepatitis C virus [12] = assay: microbe, parasite or virus in culture; conditions: isolate Con1, Huh-7, 72 h
Description: Antiviral activity against Hepatitis C virus (isolate Con1) genotype 1b in human Huh-7/3-1 cells assessed as inhibition of HCV replication after 72 hrs by luciferase assay

[13] = Cytotoxicity against human Huh-7/3-1 cells assessed as cell cycle progression at 0.02 to 50 uM after 72 hrs by flow-cytometry; format: cell-based
[14] = Cytotoxicity against human Huh-7/3-1 cells assessed as cell viability at 0.1 to 100 uM after 72 hrs by Trypan Blue exclusion test; format: cell-based
Hepatitis C virus [15] = assay: Antiviral activity against Hepatitis C virus (isolate Con1) genotype 1b in human Huh-7/3-1 cells assessed as decrease in replicon RNA at 0.01 to 1 uM after 72 hrs by Northern blot analysis; format: functional, organism-based; conditions: Hepacivirus hominis
Hepatitis C virus [16] = assay: microbe, parasite or virus in culture; conditions: isolate Con1, Huh-7; remark: listed apart in the source
Description: Antiviral activity against Hepatitis C virus (isolate Con1) genotype 1b in human Huh-7/3-1 cells assessed as inhibition of SPT activity in presence of 1 uM sphinganine

Hepatitis C virus [17] = assay: Relocation of NS5B in human Huh-7/3-1 Hepatitis C virus (isolate Con1) genotype 1b replicon cells using golgi-derived detergent-resistant membrane at 10 nM after 72 hrs by immunoblotting analysis; format: functional, organism-based; conditions: Hepacivirus hominis
Hepatitis C virus [18] = assay: Antiviral activity against Hepatitis C virus (isolate Con1) genotype 1b in human Huh-7/3-1 cells assessed as disappearance of NS3 protein from perinuclear region at 100 nM after 96 hrs by immunostaining; format: functional, organism-based; conditions: Hepacivirus hominis
Hepatitis C virus [19] = assay: Antiviral activity against Hepatitis C virus (isolate Con1) genotype 1b in human Huh-7/3-1 cells assessed as reduction in NS3 protein level in golgi-derived detergent-resistant membrane at 1 uM after 72 hrs by immunoblotting analysis; format: functional, organism-based; conditions: Hepacivirus hominis
Hepatitis C virus [20] = assay: Antiviral activity against Hepatitis C virus (isolate Con1) genotype 1b in human Huh-7/3-1 cells assessed as reduction in NS3 protein level at 1 uM by Western blot analysis in presence of 1 uM C2-ceramide; format: functional, organism-based; conditions: Hepacivirus hominis
Hepatitis C virus [21] = assay: Antiviral activity against Hepatitis C virus (isolate Con1) genotype 1b in human Huh-7/3-1 cells assessed as reduction in NS5A protein level in golgi-derived detergent-resistant membrane at 1 uM after 72 hrs by immunoblotting analysis; format: functional, organism-based; conditions: Hepacivirus hominis
Hepatitis C virus [22] = assay: Binding affinity at HCV NS5B at 1 nmol by ELISA; conditions: Hepacivirus hominis; Con1
[23] = Cytotoxicity against human Huh-7/3-1 cells assessed as cell viability at 0.1 to 11 uM after 72 hrs by WST-8 assay; format: cell-based

IC50 (Hepatitis C virus [2]): 1200 nM
SMILES: CCCCCCCCCCCCCCCC(=O)NC(CN1CCOCC1)C(O)c1ccccc1 (stereo not given)
Activity [1]: 5.3 µM

SMILES: CCCCCCCC(=O)CCCCCC/C=C/[C@H](C(=O)N[C@@H](Cc1ccc(OCC=C(C)C)cc1)C(=O)O)[C@@](O)(CC(=O)O)C(=O)O
IC50 (Hepatitis C virus [3]): > 1000 nM
IC50 [4]: 10 nM
Activity (Hepatitis C virus [5]): inactive
Activity (Homo sapiens): inactive
Activity (Hepatitis C virus [6]): tde
Activity (Hepatitis C virus [7]): tde
Activity (Hepatitis C virus [8]): Dose-dependent effect
Activity (Hepatitis C virus [9]): tde
Activity (Hepatitis C virus [10]): Active
Activity [11]: > 50 µM
IC50 (Hepatitis C virus [12]): 2 nM
Activity [13]: Non-toxic
Activity [14]: Non-toxic
Activity (Hepatitis C virus [15]): Active
IC50 (Hepatitis C virus [16]): 33 nM
Activity (Hepatitis C virus [17]): inactive
Activity (Hepatitis C virus [18]): Active
Activity (Hepatitis C virus [19]): inactive
Activity (Hepatitis C virus [20]): inactive
Activity (Hepatitis C virus [21]): inactive

SMILES: CCCCCCCCCCCCCC/C=C/[C@@H](O)[C@H](CO[C@@H]1O[C@H](CO)[C@H](O)[C@H](O)[C@H]1O)NC(=O)CCCCCCCCCCCCCCCCC
Activity (Hepatitis C virus [22]): Active

SMILES: CCCCCCC(=O)CCCCCC/C=C/C[C@@H](O)[C@H](O)[C@@](N)(CO)C(=O)O
Activity (Hepatitis C virus [10]): Active

SMILES: CCCCCCCCCCCC(=O)N[C@@H](CO)C[C@@H](O)c1ccccc1
Activity [23]: Non-toxic
